Experimental data reported in ChEMBL document CHEMBL1125625, “Antinociceptive (aminoalkyl)indoles” (J Med Chem, 1991).

What was measured:
Format in all cases: functional
Mus musculus [1] = assay: Acetylcholine writhing inhibitory activity for the compound was measured in vivo in mouse by peroral administration at 300 uM
Mus musculus [2] = assay: Acetylcholine writhing inhibitory activity measured in vivo in mouse by peroral administration; conditions: po
Mus musculus [3] = assay: Acetylcholine writhing inhibitory activity was measured in mouse (in vivo) by iv administration
Mus musculus [4] = assay: Acetylcholine writhing inhibitory activity for the compound was measured in mouse (in vivo) by iv administration at 30 uM
Mus musculus [5] = assay: Acetylcholine writhing inhibitory activity for the compound was measured in mouse (in vivo) by peroral administration at 1000 uM
Mus musculus [6] = assay: Acetylcholine writhing inhibitory activity for the compound was measured in vivo in mouse by peroral administration at 238 uM
Rattus norvegicus [7] = assay: Intra arterial bradykinin activity for the compound was measured in rat (in vivo) by peroral administration
Rattus norvegicus [8] = assay: Adjuvant arthritis paw flexion activity for the compound was measured in rat (in vivo) by peroral administration; conditions: po
Rattus norvegicus [9] = assay: Acetic acid writhing inhibitory activity for the compound was measured in rat (in vivo) by peroral administration; conditions: po
Rattus norvegicus [10] = assay: Randall-Selitto activity for the compound was measured in rat (in vivo) by peroral administration; conditions: po, read-out: MED
Mus musculus [11] = assay: Acetylcholine writhing inhibitory activity for the compound was measured in vivo in mouse by peroral administration at 20 uM
Mus musculus [12] = assay: Acetylcholine writhing inhibitory activity for the compound was measured in vivo in mouse by peroral administration at 100 uM

Structure (SMILES)	ED50 (Mus musculus [2]) [mg/kg]	other results
COc1ccc(C(=O)c2c(C)n(CCN3CCCCC3)c3ccccc23)cc1		Inhibition (Mus musculus [1]): 71%
CSc1ccc(C(=O)c2c(C)n(CCN3CCOCC3)c3ccccc23)cc1	22	
C[C@@H](C(=O)O)n1cc(C(=O)c2ccccc2F)c2ccccc21		ED50 (Mus musculus [3]): 38 mg/kg
C[C@H](C(=O)O)n1cc(C(=O)c2ccccc2F)c2ccccc21		ED50 (Mus musculus [3]): 5 mg/kg
Cc1c(C(=O)c2csc3ccccc23)c2ccccc2n1CCN1CCOCC1		Inhibition (Mus musculus [4]): 60%
Cc1c(C(=O)c2ccccc2F)c2ccccc2n1C(C)C(=O)O (stereo unspecified)	12	
Cc1c(C(=O)c2ccccc2F)c2ccccc2n1CCN1CCOCC1	79	
COc1ccc(C(=O)c2c(C)n(CCN3CCNCC3)c3ccccc23)cc1	21	
Cc1c(C(=O)c2ccccc2F)c2ccccc2n1[C@H](C)CN1CCOCC1	9	
CCNCCn1c(C)c(C(=O)c2ccc(OC)cc2)c2ccccc21	46	
Cc1c(C(=O)c2cccc3ccccc23)c2ccccc2n1CCN1CCOC(O)C1 (stereo unspecified)		ED50 (Mus musculus [3]): 9.7 mg/kg; Inhibition (Mus musculus [5]): 50%
CCc1c(C(=O)c2ccc(OC)cc2)c2ccccc2n1CCN1CCOCC1	82	
Cc1c(C(=O)c2ccc(F)cc2)c2ccccc2n1CCN1CCOCC1		Inhibition (Mus musculus [6]): 60%
COc1ccc(C(=O)c2c(C)n(CCN3CCC(O)CC3)c3ccccc23)cc1	68	
Cc1c(C(=O)c2ccccc2F)c2ccccc2n1[C@@H](C)CN1CCOCC1	37	
C[C@@H](CN1CCOCC1)n1cc(C(=O)c2ccccc2F)c2ccccc21	48	

Structure (SMILES)	ED50 (Mus musculus [2]) [mg/kg]	other results
COc1ccc(C(=O)c2c(C)n(CCN3CCOCC3)c3ccccc23)cc1 [PRAVADOLINE]	41	ED50 (Rattus norvegicus [7]): 120 mg/kg; ED50 (Rattus norvegicus [8]): 100 mg/kg; ED50 (Rattus norvegicus [9]): 15 mg/kg; minimal effective dose (Rattus norvegicus [10]): 1 mg/kg
CCN(CC)CCn1c(C)c(C(=O)c2ccc(OC)cc2)c2ccccc21	50	
COc1ccc(C(=O)c2c(C)n(CCN3CCCC(O)C3)c3ccccc23)cc1 (stereo unspecified)	26	
COc1ccc(C(=O)c2c(C)n(CC(=O)O)c3ccccc23)cc1	173	
O=C(c1ccccc1)c1ccc2n1CCC2C(=O)O (stereo unspecified) [KETOROLAC]	1.1	
COc1ccc(C(=O)c2c(C)n(CCN(C)C)c3ccccc23)cc1	65	
CC(C(=O)O)n1cc(C(=O)c2ccccc2F)c2ccccc21 (stereo unspecified)	8	
Cc1c(C(=O)c2cccc3ccccc23)c2ccccc2n1CCN1CCOCC1		ED50 (Mus musculus [3]): 0.19 mg/kg; ED50 (Rattus norvegicus [7]): 52 mg/kg; ED50 (Rattus norvegicus [8]): 30 mg/kg; ED50 (Rattus norvegicus [9]): 38 mg/kg
Cc1cccc(C(=O)c2c(C)n(CCN3CCOCC3)c3ccccc23)c1		Inhibition (Mus musculus [11]): 20%
O=C(c1cccc2ccccc12)c1cn(CCN2CCOCC2)c2ccccc12	23	ED50 (Mus musculus [3]): 0.12 mg/kg
COc1ccc(C(=O)c2c(C)n(CCCCCN3CCOCC3)c3ccccc23)cc1	15	
COc1ccc(C(=O)c2c(C)n(CCCCN3CCOCC3)c3ccccc23)cc1	56	
Cc1c(C(=O)c2cccc(F)c2)c2ccccc2n1CCN1CCOCC1		Inhibition (Mus musculus [12]): 30%
C[C@H](CN1CCOCC1)n1cc(C(=O)c2ccccc2F)c2ccccc21	11	
COc1ccc(C(=O)c2c(C)n(CCCCCCN3CCOCC3)c3ccccc23)cc1	28	
CC(CN1CCOCC1)n1cc(C(=O)c2ccccc2F)c2ccccc21 (stereo unspecified)	19	
